Literature values, collected in patent US8192775B2, “Crystallization of polyol compositions, crystalline polyol composition product and use thereof” (Danisco Sweeteners Oy, priority 2002, dated 2012).

Details: water at 20° C.

| SMILES | solubility in water |
| --- | --- |
| OC[C@@H](O)[C@@H](O[C@H]1O[C@H](CO)[C@@H](O)[C@H](O)[C@H]1O)[C@H](O)[C@@H](O)CO [Maltitol] | 62 % (w/w) |
| OC[C@@H](O)[C@H](O)[C@@H](O)CO [Xylitol] | 63 (w/w) |
